Counter-ions that a name gives are not always drawn.
Assays:
NCI-H1417 cells = assay: In vitro cell inhibition assay - H1417 cell proliferation (CellTiter-Glo); assay type: cell-based; conditions: Homo sapiens, NCI-H1417, H1417 small cell lung cancer cell proliferation
Outline: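 Cells exposed to 8 compound concentrations (5-fold dilutions) in BEGM with 10% FBS for 7 days at 37° C., 5% CO2. Viable cells measured by CellTiter-Glo luminescence; inhibition versus no-inhibitor and no-cell controls, IC50 fitted.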

pan-HDAC = assay: In vitro enzyme inhibition assay - HDAC (HDAC-Glo I/II), pan-HDAC; assay type: biochemical
Outline: (§1)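 Eight compound concentrations (5-fold steps from a 1 mM DMSO stock) tested against pan-HDAC, HDAC1 and HDAC8 with HDAC-Glo I/II reagents, luminescence read-out. Percent inhibition normalized to no-inhibitor and no-enzyme wells; IC50 derived by four-parameter logistic fit.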

HDAC8 = HDAC8 (Homo sapiens (Human), UniProt Q9BY41); assay: In vitro enzyme inhibition assay - HDAC (HDAC-Glo I/II), HDAC8; assay type: biochemical; conditions: read-out: HDAC IC50 (nM) HDAC 8
Outline: as §1

LSD1 = LSD1 (Homo sapiens (Human), UniProt O60341); assay: In vitro enzyme inhibition assay - LSD1 (HTRF); assay type: biochemical
DU145 cells = assay: In vitro cell inhibition assay - DU145 cell proliferation (CellTiter-Glo); assay type: cell-based; conditions: Homo sapiens, DU-145, Du145 prostate cancer cell proliferation
Outline: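 DU145 cells were seeded at 1×10^3 per well, exposed next day to an 8-point, 5-fold compound dilution series in RPMI-640 with 10% FBS, and incubated 6 days at 37° C. Viable cells were measured by CellTiter-Glo luminescence, and IC50 was fitted from inhibition rates relative to no-inhibitor and no-cell controls.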

NCI-H69 cells = assay: In vitro cell inhibition assay - NCI-H69 cell proliferation (CellTiter-Glo); assay type: cell-based; conditions: Homo sapiens, NCI-H69, H69 small cell lung cancer cell proliferation
Outline: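 Cells seeded at 1×10^3 per well and incubated overnight at 37° C., 5% CO2, then treated with 8-point 5-fold compound dilutions in RPMI-640 with 20% FBS for 7 days. Viable cells measured by CellTiter-Glo luminescence; IC50 fitted from inhibition relative to no-inhibitor and no-cell controls.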

HDAC1 = HDAC1 (Homo sapiens (Human), UniProt Q13547); assay: In vitro enzyme inhibition assay - HDAC (HDAC-Glo I/II), HDAC1; assay type: biochemical; conditions: read-out: HDAC IC50 (nM) HDAC 1
Outline: as §1

NCI-H526 cells = assay: In vitro cell inhibition assay - NCI-H526 cell proliferation (CellTiter-Glo); assay type: cell-based; conditions: Homo sapiens, NCI-H526, 120 h, H526 small cell lung cancer cell proliferation, 5 days
Outline: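 NCI-H526 cells plated at 1×10^3 per well overnight, then treated with 8 concentrations (5-fold dilutions) in RPMI-640 with 10% FBS for 5 days at 37° C., 5% CO2. Viable cells quantified by CellTiter-Glo luminescence; IC50 fitted from inhibition rates relative to no-inhibitor and no-cell controls.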

Chain of HDAC1 (Q13547 whole entry): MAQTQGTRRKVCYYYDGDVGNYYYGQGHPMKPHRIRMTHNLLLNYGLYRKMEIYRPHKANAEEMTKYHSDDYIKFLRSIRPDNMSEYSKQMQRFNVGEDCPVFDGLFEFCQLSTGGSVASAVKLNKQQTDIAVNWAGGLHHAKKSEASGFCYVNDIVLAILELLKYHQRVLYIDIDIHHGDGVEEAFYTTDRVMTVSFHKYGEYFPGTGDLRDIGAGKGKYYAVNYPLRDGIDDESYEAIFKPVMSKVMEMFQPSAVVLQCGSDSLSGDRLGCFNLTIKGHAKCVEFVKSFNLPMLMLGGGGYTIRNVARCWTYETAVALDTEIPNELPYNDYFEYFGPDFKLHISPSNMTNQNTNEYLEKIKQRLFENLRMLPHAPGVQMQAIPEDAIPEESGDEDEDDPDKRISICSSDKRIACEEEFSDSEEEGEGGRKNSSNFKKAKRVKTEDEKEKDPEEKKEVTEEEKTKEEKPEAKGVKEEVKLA
Chain of HDAC8 (Q9BY41 whole entry): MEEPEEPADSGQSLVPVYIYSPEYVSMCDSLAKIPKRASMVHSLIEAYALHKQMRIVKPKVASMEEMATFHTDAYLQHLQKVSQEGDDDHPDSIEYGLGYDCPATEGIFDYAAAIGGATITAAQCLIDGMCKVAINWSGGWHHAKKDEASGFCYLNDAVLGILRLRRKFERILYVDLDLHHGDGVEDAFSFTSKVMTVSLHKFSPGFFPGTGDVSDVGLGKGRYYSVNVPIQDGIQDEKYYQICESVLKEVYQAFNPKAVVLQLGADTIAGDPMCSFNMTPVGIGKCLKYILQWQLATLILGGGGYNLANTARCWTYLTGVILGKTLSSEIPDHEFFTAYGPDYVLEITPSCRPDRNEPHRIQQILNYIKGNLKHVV

Compound | IC50 (NCI-H1417 cells) | IC50 (pan-HDAC) | IC50 (HDAC8) | IC50 (LSD1) | IC50 (DU145 cells) | IC50 (NCI-H69 cells) | IC50 (HDAC1) | IC50 (NCI-H526 cells)
COc1ccc(-c2c(OC)cc(N3CCC(N)CC3)nc2-c2ccc(C#N)c(F)c2)cc1OCCNCc1ccc(/C=C/C(=O)NO)cc1 [Example 30, (E)-3-(4-((2-(5-(6-(4-Aminopiperidin-1-yl)-2-(4-cyano-3-fluorophenyl)-4-methoxypyridin-3-yl)-2-methoxyphenoxy)ethyl)amino)methyl)phenyl)-N-hydroxyacrylamide hydrochloride] | 206 nM | 18.1 nM | 65.8 nM | 4.25 nM | 2830 nM | 1500 nM | 39.9 nM | –
COc1ccc(-c2c(OC)cc(N3CCC(NCc4ccc(/C=C/C(=O)NO)cc4)CC3)nc2-c2ccc(C#N)c(F)c2)cc1O [Example 54, (E)-3-(4-(((1-(6-(4-cyano-3-fluorophenyl)-5-(3-hydroxy-4-methoxyphenyl)-4-methoxypyridin-2-yl)piperidin-4-yl)amino)methyl)phenyl)-N-hydroxyacrylamide formate] | 0.8 nM | 34.4 nM | 125 nM | 0.62 nM | 1050 nM | 248 nM | 58.2 nM | –
N#Cc1ccc(-c2c(-c3ccc(/C=C/C(=O)NO)cc3)cnc(N3CCC(N)CC3)c2C#N)cc1F [Example 63, (E)-3-(4-(6-(4-Aminopiperidin-1-yl)-5-cyano-4-(4-cyano-3-fluorophenyl)pyridin-3-yl)phenyl)-N-hydroxyacrylamide diformate] | 72.6 nM | 6.22 nM | 561 nM | 8.7 nM | 1800 nM | 422 nM | 9.28 nM | –
CC1(N)CCN(c2ncc(-c3ccc(/C=C/C(=O)NO)c(O)c3)c(-c3ccc(C#N)c(F)c3)c2C#N)CC1 [Example 64, (E)-3-(4-(6-(4-Amino-4-methylpiperidin-1-yl)-5-cyano-4-(4-cyano-3-fluorophenyl)pyridin-3-yl)-2-hydroxyphenyl)-N-hydroxyacrylamide formate] | 28.6 nM | 5.95 nM | 441 nM | 1.4 nM | 9360 nM | 2910 nM | 9.08 nM | –

Now from value to compound:

IC50 (NCI-H1417 cells) | IC50 (pan-HDAC) | IC50 (HDAC8) | IC50 (LSD1) | IC50 (DU145 cells) | IC50 (NCI-H69 cells) | IC50 (HDAC1) | IC50 (NCI-H526 cells) | Compound
65 nM | 54.4 nM | 392 nM | 8.25 nM | 1640 nM | 194 nM | 108 nM | – | COc1ccc(-c2cnc(N3CCC(NCc4ccc(/C=C/C(=O)NO)cc4)CC3)c(C#N)c2-c2ccc(C#N)c(F)c2)cc1F [Example 40, (E)-3-(4-(((1-(3-Cyano-4-(4-cyano-3-fluorophenyl)-5-(3-fluoro-4-methoxyphenyl)pyridin-2-yl)piperidin-4-yl)amino)methyl)phenyl)-N-hydroxyacrylamide hydrochloride]
3.53 nM | 2.5 nM | 456 nM | 1.13 nM | – | 15.1 nM | 4.44 nM | 5.86 nM | COc1ccc(-c2cnc(N3CCC(NC(C)c4ccc(/C=C/C(=O)NO)cc4)CC3)c(C#N)c2-c2ccc(C#N)c(F)c2)cc1O (stereo not shown) [Example 210, (E)-3-(4-(1-((1-(3-Cyano-4-(4-cyano-3-fluorophenyl)-5-(3-hydroxy-4-methoxyphenyl)pyridin-2-yl)piperidin-4-yl)amino)ethyl)phenyl)-N-hydroxyacrylamide formate]
10.2 nM | 2.23 nM | 42.1 nM | 1.76 nM | – | 3.81 nM | 0.43 nM | 8.35 nM | COc1ccc(-c2cnc(N3CCC(NCc4ccc(/C=C/C(=O)NO)cc4)CC3)c(CC#N)c2-c2ccc(C#N)c(F)c2)cc1O [Example 233, (E)-3-(4-(((1-(4-(4-cyano-3-fluorophenyl)-3-(cyanomethyl)-5-(3-hydroxy-4-methoxyphenyl)pyridin-2-yl)piperidin-4-yl)amino)methyl)phenyl)-N-hydroxyacrylamide formate]
